The target of assay [1] is T1, SYK kinase (Homo sapiens, UniProt P43405).
T1 construct: purchased Invitrogen, Carlsbad
Briefly: SYK Assay (OMNIA Kinase Assay, SOX peptide fluorescence). Format: biochemical. Particulars: 1 mM ATP, 10 μM Omnia Peptide Substrate Tyr 7, 30° C., readings for 30 minutes; read-out: SYK Activities: IC50. The procedure, abridged:
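The reaction was run at 30 °C with 1 mM ATP, 0.2 mM DTT and 10 μM Omnia Tyr 7 peptide (final) and started by adding SYK. Chelation-enhanced SOX fluorescence (ex 360/em 485 nm) was read every 30 s for 30 min. Reaction velocity versus inhibitor concentration was fitted sigmoidally for IC50.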

In assay [2] the target is LRRK2 (Homo sapiens, UniProt Q5S007). Put plainly: LRRK2-LRRK2 G2019S-Assay (LanthaScreen Eu Kinase Binding Assay). The following applies: 5 nM LRRK2, 10 nM tracer 236, 2 nM EU-Anti-GST antibody, 1 h at RT; read-out: LRRK2 Activities: IC50. The gist of the method: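 Compound competition with Alexa Fluor 647 tracer 236 (10 nM) was measured after 1 h at room temperature, using 5 nM LRRK2 (wild type or mutant) bound to 2 nM Eu-anti-GST antibody. IC50 was derived from the acceptor/donor (665/615 nm) ratio using a variable-slope dose-response fit.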
Chain of LRRK2 (Q5S007 970-2527 limits assumed): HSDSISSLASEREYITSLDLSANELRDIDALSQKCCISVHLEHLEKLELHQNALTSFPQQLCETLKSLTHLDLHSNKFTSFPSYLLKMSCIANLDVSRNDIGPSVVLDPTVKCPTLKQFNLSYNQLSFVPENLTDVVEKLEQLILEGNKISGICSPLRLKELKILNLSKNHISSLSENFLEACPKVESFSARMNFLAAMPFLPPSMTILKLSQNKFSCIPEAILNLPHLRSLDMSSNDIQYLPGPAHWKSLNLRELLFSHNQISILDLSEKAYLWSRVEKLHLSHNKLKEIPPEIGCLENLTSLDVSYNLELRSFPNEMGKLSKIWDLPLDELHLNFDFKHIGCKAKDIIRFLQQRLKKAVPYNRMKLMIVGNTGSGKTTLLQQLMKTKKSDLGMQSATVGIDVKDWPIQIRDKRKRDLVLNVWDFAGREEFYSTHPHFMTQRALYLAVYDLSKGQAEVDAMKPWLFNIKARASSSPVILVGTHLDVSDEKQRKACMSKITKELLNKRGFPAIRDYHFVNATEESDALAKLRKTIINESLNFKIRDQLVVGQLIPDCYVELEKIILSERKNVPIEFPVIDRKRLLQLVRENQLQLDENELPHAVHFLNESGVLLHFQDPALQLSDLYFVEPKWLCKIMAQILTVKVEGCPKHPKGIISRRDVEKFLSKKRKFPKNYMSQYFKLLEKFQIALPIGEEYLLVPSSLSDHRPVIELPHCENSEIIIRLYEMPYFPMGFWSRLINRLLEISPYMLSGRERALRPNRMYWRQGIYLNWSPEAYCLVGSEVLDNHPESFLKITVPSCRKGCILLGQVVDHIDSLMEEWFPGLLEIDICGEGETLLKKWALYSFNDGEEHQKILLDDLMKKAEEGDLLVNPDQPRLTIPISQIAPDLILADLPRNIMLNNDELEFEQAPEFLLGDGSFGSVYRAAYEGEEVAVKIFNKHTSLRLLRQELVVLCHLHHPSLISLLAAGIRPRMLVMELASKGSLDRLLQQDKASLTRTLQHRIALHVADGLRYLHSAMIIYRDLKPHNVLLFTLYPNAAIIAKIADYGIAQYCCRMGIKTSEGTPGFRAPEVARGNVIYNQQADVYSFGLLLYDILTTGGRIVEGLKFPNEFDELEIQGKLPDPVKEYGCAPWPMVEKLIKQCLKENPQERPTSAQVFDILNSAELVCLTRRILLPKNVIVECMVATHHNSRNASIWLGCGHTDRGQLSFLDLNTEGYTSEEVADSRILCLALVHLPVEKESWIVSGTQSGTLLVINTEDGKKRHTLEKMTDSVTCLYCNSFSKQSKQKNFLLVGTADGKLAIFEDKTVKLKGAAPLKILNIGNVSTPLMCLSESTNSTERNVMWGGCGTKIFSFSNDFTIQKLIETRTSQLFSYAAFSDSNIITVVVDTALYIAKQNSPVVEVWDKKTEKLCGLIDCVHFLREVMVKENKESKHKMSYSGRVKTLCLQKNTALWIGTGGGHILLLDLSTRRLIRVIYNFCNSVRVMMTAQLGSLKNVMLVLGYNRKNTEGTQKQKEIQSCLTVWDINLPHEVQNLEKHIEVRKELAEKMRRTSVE
Background: Time-resolved FRET reads energy transfer from a long-lived donor to a nearby acceptor.

Structures are written as SMILES. Some results are limits rather than exact numbers.

This is an account of results in US10752624B2, “Kinase inhibitors” (Origenis GmbH, priority 2012, dated 2020).

A word on the IC50: it is the midpoint of a concentration-inhibition curve.

Consider `CS(=O)(=O)c1ccc2nc(Nc3ccc(C(N)=O)cc3)c3[nH]ncc3c2c1` [Example 66, 4-((8-(methylsulfonyl)-3H-pyrazolo[3,4-c]quinolin-4-yl)amino)benzamide], for which the half-inhibitory concentration (IC50) in assay [1] and in assay [2] was 10 to 100 nM in each case.
For the compound `COc1cccc2nc(Nc3cnn(CC(=O)N(C)C)c3)c3[nH]ncc3c12` [Example 339, 2-(4-((9-methoxy-3H-pyrazolo[3,4-c]quinolin-4-yl)amino)-1H-pyrazol-1-yl)-N,N-dimethylacetamide], the IC50 in assay [1] lay within 100 to 1000 nM; in assay [2], 10 to 100 nM.
As for `CSc1ccc2nc(Nc3ccc(N4CCN(C(C)=O)CC4)cc3)c3[nH]ncc3c2c1` [Example 46, 1-(4-(4-((8-(methylthio)-3H-pyrazolo[3,4-c]quinolin-4-yl)amino)phenyl)piperazin-1-yl)ethan-1-one], the IC50 in assay [1] lay in the range of 100 to 1000 nM; in assay [2], 10 to 100 nM.
In the case of `CC(=O)Nc1cccc(Nc2nc3ccc(S(C)(=O)=O)cc3c3c[nH]nc23)c1` [Example 331, N-(3-((8-(methylsulfonyl)-2H-pyrazolo[3,4-c]quinolin-4-yl)amino)phenyl)acetamide], the 50% inhibitory concentration (IC50) is 100 to 1000 nM in assay [1] and 10 to 100 nM in assay [2].
With `COc1cccc2nc(Nc3cnn(CC(C)(C)O)c3)c3[nH]ncc3c12` [Example 256, 1-(4-((9-methoxy-3H-pyrazolo[3,4-c]quinolin-4-yl)amino)-1H-pyrazol-1-yl)-2-methylpropan-2-ol], the half-inhibitory concentration (IC50) in assay [1] is 100 to 1000 nM; in assay [2], less than 10 nM.
With `COc1cccc2nc(Nc3cnn(C4CC4)c3)c3[nH]ncc3c12` [Example 201, N-(1-cyclopropyl-1H-pyrazol-4-yl)-9-methoxy-3H-pyrazolo[3,4-c]quinolin-4-amine], the IC50 in assay [1] was 100 to 1000 nM; in assay [2], less than 10 nM.
Regarding `CN1CCN(C2CCN(c3ccc(Nc4nc5ccc(S(C)(=O)=O)cc5c5cn[nH]c45)cc3)CC2)CC1` [Example 67, N-(4-(4-(4-methylpiperazin-1-yl)piperidin-1-yl)phenyl)-8-(methylsulfonyl)-3H-pyrazolo[3,4-c]quinolin-4-amine], the concentration for half-maximal inhibition (IC50) in assay [1] is less than 10 nM; in assay [2], 10 to 100 nM.
Consider `COc1cccc2nc(Nc3ccc(N4CCC(N5CCN(C)CC5)CC4)cc3)c3[nH]ncc3c12` [Example 21, 9-methoxy-N-(4-(4-(4-methylpiperazin-1-yl)piperidin-1-yl)phenyl)-3H-pyrazolo[3,4-c]quinolin-4-amine], for which the values for the IC50 in assay [1] and in assay [2] were 100 to 1000 nM and 10 to 100 nM, respectively.
For `CS(=O)(=O)c1ccc2c(c1)nc(Nc1ccc(N3CCOCC3)cc1)c1[nH]ncc12` [Example 101, 7-(methylsulfonyl)-N-(4-morpholinophenyl)-3H-pyrazolo[3,4-c]quinolin-4-amine], in that order: 100 to 1000 nM and 10 to 100 nM.
`COc1ccc2nc(Nc3ccc(CN4CCC(N5CCN(C)CC5)CC4)cc3)c3n[nH]cc3c2c1` [Example 22, 8-methoxy-N-(4-((4-(4-methylpiperazin-1-yl)piperidin-1-yl)methyl)phenyl)-2H-pyrazolo[3,4-c]quinolin-4-amine]: the IC50 in assay [1] and in assay [2] was 100 to 1000 nM each time.
With `CS(=O)(=O)c1ccc2nc(Nc3ccc(N4CCOC4=O)cc3)c3[nH]ncc3c2c1` [Example 76, 3-(4-((8-(methylsulfonyl)-3H-pyrazolo[3,4-c]quinolin-4-yl)amino)phenyl)oxazolidin-2-one], the values for the IC50 in assay [1] and in assay [2] were 100 to 1000 nM and 10 to 100 nM, respectively.
Take `CC(C)(C)n1cc(Nc2nc3cc(S(C)(=O)=O)ccc3c3cn[nH]c23)cn1` [Example 188, N-(1-(tert-butyl)-1H-pyrazol-4-yl)-7-(methylsulfonyl)-3H-pyrazolo[3,4-c]quinolin-4-amine]: the IC50 in assay [1] is 100 to 1000 nM; in assay [2], 10 to 100 nM.
In the case of `COCCCn1cc(Nc2nc3cc(S(C)(=O)=O)ccc3c3cn[nH]c23)cn1` [Example 190, N-(1-(3-methoxypropyl)-1H-pyrazol-4-yl)-7-(methylsulfonyl)-3H-pyrazolo[3,4-c]quinolin-4-amine], the half-maximal inhibitory concentration (IC50) in assay [1] and in assay [2] was 10 to 100 nM each time.
In the case of `COc1ccc2nc(Nc3cnn(C(C)(C)C)c3)c3[nH]ncc3c2c1` [Example 286, N-(1-(tert-butyl)-1H-pyrazol-4-yl)-8-methoxy-3H-pyrazolo[3,4-c]quinolin-4-amine], the IC50 was 100 to 1000 nM in assay [1] and less than 10 nM in assay [2].
As for `CS(=O)(=O)c1ccc2nc(Nc3ccc4c(c3)NC(=O)CS4)c3n[nH]cc3c2c1` [Example 344, 6-((8-(methylsulfonyl)-2H-pyrazolo[3,4-c]quinolin-4-yl)amino)-2H-benzo[b][1,4]thiazin-3(4H)-one], the results for the IC50 in assay [1] and in assay [2] were less than 10 nM and 10 to 100 nM, respectively.
With `CC(=O)N1CCC(n2cc(Nc3nc4cc(S(C)(=O)=O)ccc4c4cn[nH]c34)cn2)CC1` [Example 168, 1-(4-(4-((7-(methylsulfonyl)-3H-pyrazolo[3,4-c]quinolin-4-yl)amino)-1H-pyrazol-1-yl)piperidin-1-yl)ethan-1-one], the IC50 in assay [1] and in assay [2] was 10 to 100 nM throughout.
On to `COc1ccc2nc(Nc3cnn(C4CCCOC4)c3)c3n[nH]cc3c2c1` (stereo not drawn) [Example 314, 8-methoxy-N-(1-(tetrahydro-2H-pyran-3-yl)-1H-pyrazol-4-yl)-2H-pyrazolo[3,4-c]quinolin-4-amine], for which the IC50 in assay [1] and in assay [2] was 10 to 100 nM in each case.
On to `CC(C)Cn1cc(Nc2nc3cc(S(C)(=O)=O)ccc3c3cn[nH]c23)cn1` [Example 192, N-(1-isobutyl-1H-pyrazol-4-yl)-7-(methylsulfonyl)-3H-pyrazolo[3,4-c]quinolin-4-amine], for which the 50% inhibitory concentration (IC50) in assay [1] and in assay [2] was 10 to 100 nM throughout.
In the case of `Brc1ccc2c(c1)nc(Nc1cnn(C3CCOCC3)c1)c1n[nH]cc12` [Example 348, 7-bromo-N-(1-(tetrahydro-2H-pyran-4-yl)-1H-pyrazol-4-yl)-2H-pyrazolo[3,4-c]quinolin-4-amine], the IC50 in assay [1] is 10 to 100 nM; in assay [2], less than 10 nM.
For `COc1ccc2nc(Nc3cnn(C4CC4)c3)c3[nH]ncc3c2c1` [Example 293, N-(1-cyclopropyl-1H-pyrazol-4-yl)-8-methoxy-3H-pyrazolo[3,4-c]quinolin-4-amine], in that order: 10 to 100 nM and 10 to 100 nM.
With `COc1cccc2nc(Nc3ccc(N4CCN(C)CC4)nc3)c3[nH]ncc3c12` [Example 79, 9-methoxy-N-(6-(4-methylpiperazin-1-yl)pyridin-3-yl)-3H-pyrazolo[3,4-c]quinolin-4-amine], the IC50 in assay [1] lay in the range of 100 to 1000 nM; in assay [2], 10 to 100 nM.
Consider `CC(C)=Cn1cc(Nc2nc3ccc(S(C)(=O)=O)cc3c3cn[nH]c23)cn1` [Example 263, N-(1-(2-methylprop-1-en-1-yl)-1H-pyrazol-4-yl)-8-(methylsulfonyl)-3H-pyrazolo[3,4-c]quinolin-4-amine], for which the half-inhibitory concentration (IC50) in assay [1] is 10 to 100 nM; in assay [2] it was less than 10 nM.
For `COc1cccc2nc(Nc3cnn(C4CCN(C(C)(C)C)CC4)c3)c3[nH]ncc3c12` [Example 206, N-(1-(1-(tert-butyl)piperidin-4-yl)-1H-pyrazol-4-yl)-9-methoxy-3H-pyrazolo[3,4-c]quinolin-4-amine], the IC50 was 10 to 100 nM in assay [1] and less than 10 nM in assay [2].
For `COc1ccc2nc(Nc3ccc(N4CCC(N5CCN(C)CC5)CC4)cc3)c3n[nH]cc3c2c1` [Example 3, 8-methoxy-N-(4-(4-(4-methylpiperazin-1-yl)piperidin-1-yl)phenyl)-2H-pyrazolo[3,4-c]quinolin-4-amine], the concentration for half-maximal inhibition (IC50) in assay [1] is 100 to 1000 nM; in assay [2] it was 10 to 100 nM.
Take `Cc1ccc2nc(Nc3ccc(N4CCOCC4)cc3)c3[nH]ncc3c2c1` [Example 74, 8-methyl-N-(4-morpholinophenyl)-3H-pyrazolo[3,4-c]quinolin-4-amine]: the values for the IC50 in assay [1] and in assay [2] were 100 to 1000 nM and 10 to 100 nM, respectively.
For `COc1c(Nc2nc3ccc(S(C)(=O)=O)cc3c3cn[nH]c23)cnn1C1CCN(C(C)(C)C)CC1` [Example 229, N-(1-(1-(tert-butyl)piperidin-4-yl)-5-methoxy-1H-pyrazol-4-yl)-8-(methylsulfonyl)-3H-pyrazolo[3,4-c]quinolin-4-amine], the half-inhibitory concentration (IC50) lay within 100 to 1000 nM in assay [1] and 10 to 100 nM in assay [2].
With `CC(C)n1ncc(Nc2nc3ccc(S(C)(=O)=O)cc3c3cn[nH]c23)c1C#N` [Example 247, 1-isopropyl-4-((8-(methylsulfonyl)-3H-pyrazolo[3,4-c]quinolin-4-yl)amino)-1H-pyrazole-5-carbonitrile], the results for the IC50 in assay [1] and in assay [2] were 100 to 1000 nM and less than 10 nM, respectively.
As for `CC(C)(O)Cn1cc(Nc2nc3ccc(S(C)(=O)=O)cc3c3cn[nH]c23)cn1` [Example 262, 2-methyl-1-(4-((8-(methylsulfonyl)-3H-pyrazolo[3,4-c]quinolin-4-yl)amino)-1H-pyrazol-1-yl)propan-2-ol], the 50% inhibitory concentration (IC50) in assay [1] was 10 to 100 nM; in assay [2], less than 10 nM.
`COCCCn1cc(Nc2nc3ccc(S(C)(=O)=O)cc3c3cn[nH]c23)c(OC)n1` [Example 231, N-(3-methoxy-1-(3-methoxypropyl)-1H-pyrazol-4-yl)-8-(methylsulfonyl)-3H-pyrazolo[3,4-c]quinolin-4-amine]: the IC50 in assay [1] lay within 100 to 1000 nM; in assay [2], 10 to 100 nM.
The corresponding values for `COc1cccc2nc(Nc3cnn(CC(F)(F)F)c3)c3[nH]ncc3c12` [Example 257, 9-methoxy-N-(1-(2,2,2-trifluoroethyl)-1H-pyrazol-4-yl)-3H-pyrazolo[3,4-c]quinolin-4-amine] are 100 to 1000 nM and less than 10 nM.
